Legend:
MCF7 (breast) = experiment: In vitro cytotoxic activity (MTT) assay, MCF7; assay type: cell-based; conditions: Homo sapiens, cells exposed for 96 hours, 50% inhibition of cell proliferation, read-out: Cytotoxicity activity IC50, MCF7 (breast)
Procedure: (§1) Compounds 1-16 were screened for their in vitro cytotoxic activity utilizing a 3-(4,5-dimethyl-thiazol-2-yl)-2,5-diphenyltetrazolium bromide (MTT) assay against selected cancer human cell lines consisting of PC3 (prostate), HCT116 (colon), A375 (melanoma), H1299 (lung), MIAPaCa-2 (pancreas), HL60 (leukemia), MCF7 (breast), MDA-MB-231 (breast) (T. Mosmann, J. Immunol. Meth., 1983, 65, 55-63). The cells were cultured at 37° C. in RMPI1640 medium supplemented with 10% fetal bovine serum, 50 IU/mL penicillin, and 50 μg/mL streptomycin in a 5% CO2 incubator. All cells were sub-cultured 3 times/week by trypsinisation. Viable cells were seeded and allowed to adhere for 12 h before a test drug was added in 96-well plates at an initial density of 1.0×10^5 cells/mL. Tumor cell lines were separately exposed to various concentrations of the tested compounds followed by incubation at a temperature of 37° C. during 96 hours inside a medium of fresh RMPI 1640. Cells were subsequently incubated at 37° C. using MTT at 0.5 mg/mL during 4 hours. After removal of supernatant, formazan crystals were dissolved in isopropanol and the optical density was measured at 570 nm. CX-4945 was used as a positive control.

H1299 (lung) = experiment: In vitro cytotoxic activity (MTT) assay, H1299; assay type: cell-based; conditions: Homo sapiens, NCI-H1299; cells exposed for 96 hours; 50% inhibition of cell proliferation; read-out: Cytotoxicity activity IC50, H1299 (lung)
Procedure: as §1

MIAPaCa-2 (pancreas) = experiment: In vitro cytotoxic activity (MTT) assay, MIAPaCa-2; assay type: cell-based; conditions: Homo sapiens, MIA PaCa-2; cells exposed for 96 hours; 50% inhibition of cell proliferation; read-out: Cytotoxicity activity IC50, MIAPaCa-2 (pancreas)
Procedure: as §1

[1] = molecular target: T1, recombinant human CK2 (RRββ-holoenzyme) (Homo sapiens, UniProt P68400); experiment: CK2 Kinase Assay (33P-ATP, filter plate); assay type: biochemical; conditions: final ATP concentration 15 μM; 10 min at 30° C.; read-out: protein kinase CK2 IC50
T1 construct: purchased Millipore
T1 sequence (P68400 whole entry): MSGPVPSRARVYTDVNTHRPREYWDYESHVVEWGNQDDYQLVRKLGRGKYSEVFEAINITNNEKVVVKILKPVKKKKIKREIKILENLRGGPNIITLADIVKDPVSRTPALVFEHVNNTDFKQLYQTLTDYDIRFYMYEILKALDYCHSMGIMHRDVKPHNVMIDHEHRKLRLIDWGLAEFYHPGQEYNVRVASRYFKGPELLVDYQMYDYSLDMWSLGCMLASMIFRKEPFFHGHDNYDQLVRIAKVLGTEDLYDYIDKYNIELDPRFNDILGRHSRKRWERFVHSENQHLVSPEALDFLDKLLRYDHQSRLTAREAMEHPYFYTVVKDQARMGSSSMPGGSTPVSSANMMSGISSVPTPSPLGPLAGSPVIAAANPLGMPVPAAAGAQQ
T1 sequence (P67870 whole entry partner): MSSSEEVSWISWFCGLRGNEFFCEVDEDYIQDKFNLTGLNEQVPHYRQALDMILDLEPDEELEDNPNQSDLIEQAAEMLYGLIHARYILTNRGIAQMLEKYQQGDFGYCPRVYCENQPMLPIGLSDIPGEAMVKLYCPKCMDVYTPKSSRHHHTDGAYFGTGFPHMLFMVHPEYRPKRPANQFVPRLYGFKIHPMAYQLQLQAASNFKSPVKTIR
Procedure: CK2 Kinase Assay was conducted using the protocol as described in Pierre F. et al; J. Med. Chem. 2011, 54, 635-654. The tested compounds in aqueous solution were added at a volume of 10 μL to a reaction mixture comprising 10 μL of assay dilution buffer (ADB; 20 mM MOPS, pH 7.2, 25 mM β-glycerol phosphate, 5 mM EGTA, 1 mM sodium orthovanadate, and 1 mM dithiothreitol), 10 μL of substrate peptide (RRRDDDSDDD, dissolved in ADB at a concentration of 1 mM), 10 μL of recombinant human CK2 (RRββ-holoenzyme, 25 ng dissolved in ADB; Millipore). Reactions were initiated by the addition of 10 μL of ATP solution (90% 75 mMMgCl2, 75 µM ATP (final ATP concentration: 15 μM) dissolved in ADB; 10% [γ-33P] ATP (stock 1 mCi/100 μL; 3000 Ci/mmol (Perkin-Elmer) and maintained for 10 min at 30° C. The reactions were quenched with 100 μL of 0.75% phosphoric acid and then transferred to and filtered through a phosphor cellulose filter plate (Millipore). After washing each well five times with 0.75% phosphoric acid, the plate was dried under vacuum for 5 min and, following the addition of 15 μL of scintillation fluid to each well, the residual radioactivity was measured using a Wallac luminescence counter. The IC50 values were derived from eight concentrations of test inhibitors.

PC3 (prostate) = experiment: In vitro cytotoxic activity (MTT) assay, PC3; assay type: cell-based; conditions: Homo sapiens; cells exposed for 96 hours; 50% inhibition of cell proliferation; read-out: Cytotoxicity activity IC50, PC3 (prostate)
Procedure: as §1

HCT116 (colon) = experiment: In vitro cytotoxic activity (MTT) assay, HCT116; assay type: cell-based; conditions: Homo sapiens, HCT-116; cells exposed for 96 hours; 50% inhibition of cell proliferation; read-out: Cytotoxicity activity IC50, HCT116 (colon)
Procedure: as §1

MDA-MB-231 (breast) = experiment: In vitro cytotoxic activity (MTT) assay, MDA-MB-231; assay type: cell-based; conditions: Homo sapiens, cells exposed for 96 hours, 50% inhibition of cell proliferation, read-out: Cytotoxicity activity IC50, MDA-MB-231 (breast)
Procedure: as §1

HL60 (leukemia) = experiment: In vitro cytotoxic activity (MTT) assay, HL60; assay type: cell-based; conditions: Homo sapiens, HL-60; cells exposed for 96 hours; 50% inhibition of cell proliferation; read-out: Cytotoxicity activity IC50, HL60 (leukemia)
Procedure: as §1

A375 (melanoma) = experiment: In vitro cytotoxic activity (MTT) assay, A375; assay type: cell-based; conditions: Homo sapiens, A-375; cells exposed for 96 hours; 50% inhibition of cell proliferation; read-out: Cytotoxicity activity IC50, A375 (melanoma)
Procedure: as §1

What does the source list for `Clc1cccc(Nc2nc3cnccc3c3c2[nH]c2cnccc23)c1` [Compound 1, N-(3-chlorophenyl)-7H-pyrido[4′,3′:4,5]pyrrolo[2,3-c][1,7]naphthyridin-6-amine]?
IC50 (MCF7 (breast)): 4.9 µM; IC50 (H1299 (lung)): 1.6 µM; IC50 (MIAPaCa-2 (pancreas)): 2.8 µM; IC50 [1]: 0.295 µM; IC50 (PC3 (prostate)): 0.9 µM; IC50 (HCT116 (colon)): 1.1 µM; IC50 (MDA-MB-231 (breast)): 4.1 µM; IC50 (HL60 (leukemia)): 3.6 µM; IC50 (A375 (melanoma)): 4.2 µM

Source: patent publication US12269826B1, “7H-pyrido[4′,3′:4,5]pyrrolo[2,3-c][1,7]naphthyridine compounds as CK2 inhibitors” (KING FAISAL UNIVERSITY, priority 2023, dated 2025)
